In patent US6433012B1, “Method for inhibiting inflammatory disease” (Large Scale Biology Corp., priority 1998, dated 2002):
Marks after values point to notes of the source that are not given here.

Assays:
[1] = test system: angiogenesis induced by hFGF-B in the chick chorioallantoic membrane (CAM); assay: Chick chorioallantoic membrane (CAM) assay, 14C-proline incorporation into collagenous protein; type: in vivo; set-up: inhibition of hFGF-B-induced angiogenesis: dose or concentration left out as unconfirmed
From the text: This example illustrates the anti-angiogenic properties of methyl-3,5-diiodo-4-(4′-methoxyphenoxy)benzoate in the chick chorioallantoic membrane assay (CAM). The endpoint of the CAM assay was a quantitative determination of basement membrane biosynthesis by measuring the incorporation of ^14C-proline into Type IV collagenous protein.
The CAM assay involves the development of live chick embryos in Petri dishes under special sterile conditions. Therefore, only limited numbers of embryos can be used for evaluation of compounds in a single experiment. For this reason, two separate assays were conducted to test the three Biosource compounds at three concentrations per compound. In this assay, a known angiogenesis inhibitor, 2-methoxyestradiol (2-ME), was used as the positive control, and human fibroblast growth factor (hFGF) was used to induce angiogenesis in the CAM.
For testing, a minimum amount of acetone-methanol (1:1) was added to the test compounds for sterilization. The acetone-methanol mixture was then evaporated to dryness in a sterile hood. The compounds were dissolved dimethyl sulfoxide (DMSO) first and then diluted with saline containing methylcellulose. The final concentrations were 2% DMSO and 0.5% methylcellulose. All test solutions were added to each CAM in […].
Fresh fertile eggs were incubated for three days in a standard egg incubator. On Day 3, eggs were cracked under sterile conditions and embryos were placed in 20×100 mm plastic Petri dishes and cultivated at 37° C. in an embryo incubator with a water reservoir on the bottom shelf. Air was continuously bubbled into the water reservoir by using a small pump so that the humidity in the incubator was kept constant. Observations were made daily to ensure that all embryos were healthy. Dead or unhealthy embryos were removed from the incubator immediately to avoid contamination. On Day 9, a sterile silicone ring cup was placed on each CAM and […] of ^14C-proline with or without the test compound plus 2.5 ng of hFGF dissolved in saline containing 0.5% methylcellulose was delivered into each ring cup in a sterile hood. 2-ME was tested in parallel to serve as a reference compound. After addition of test materials, the embryos were returned to the incubator and cultivation continued. On Day 12, all embryos were transferred to a cold room at 4-10° C. The antiangiogenic effect of each test compound was determined by using the collagenase assay (Maragoudakis, et al., J. Pharm. Exp. Ther. 251:679-682 (1989)) to measure ^14C-proline incorporation into collagenous protein.
With the embryos placed on ice, a piece of CAM 10 mm in diameter was cut off under each ring cup and placed in a separate tube. To each tube was added 1.0 mL of phosphate-buffered saline (PBS, pH 7.3) containing 0.11 mg cycloheximide and 0.17 mg dipyridyl. The tubes were placed in a boiling water bath for 10 min and then cooled to room temperature. The PBS in each tube was discarded after centrifugation at 3000× g for 10 min. The CAM residue was washed once with 3 mL of 15% TCA and then three times with 3 mL of 5% TCA. Centrifugation was carried out as described above between each washing. At this point all non-protein bound radioactivity was removed, and the CAM containing the newly synthesized ^14C-collagenous protein was suspended in 0.9 mL of 0.1 N NaOH and 1.1 mL of HEPES buffer at pH 7.4. The pH of the sample was neutralized with 0.8 N HCl, using phenol red as indicator.
To digest the ^14C-collagenous protein, 7.5 units of collagenase and 500 nmol of calcium chloride in […] of HEPES buffer was added to the above samples, and mixtures were incubated at 37° C. for 4 h. The reaction was stopped by adding 1.0 mL of 20% TCA containing 5 mg of tannic acid into each tube. After vortex mixing, the samples were centrifuged at 3000× g for 10 min. […]

MCF-7 cell cultures = assay: Cytotoxicity in vitro (reduction of cell number); type: cell-based; details: Homo sapiens, MCF7; treated for 48 h; read-out: IC50 (50% reduction of cell number relative to vehicle-treated control)
[2] = test system: TNF-α mRNA in murine macrophage PU5-1.8 cell line; assay: TNF-α mRNA in LPS-stimulated macrophages (Northern blot); type: cell-based
Method: The murine macrophage PU5-1.8 cell line was purchased from the American Type Culture Collection (ATCC, Rockville, Md.). Cells were grown in DMEM medium supplemented with […], 0.1 mM nonessential amino acids, 2 mM glutamine and 5% fetal bovine serum (Life Technologies, Staten Island, N.Y.). Cells were maintained in a humidified atmosphere of 5% CO2-95% air at 37° C. Cells were passages twice weekly by firmly tapping the side of the flask to dislodge the adherent cells. Both nonadherent and adherent cells were passages. Exponentially growing cells were seeded at 5×10 ^5/mL, 4mL per 60-mm dish 24 h prior to the experiment. Test compounds were delivered in 1 mL volumes of the medium added to each dish at the start of the experiment. All dishes were incubated at 37° C. in 5% CO2-95% air for 3 h.
Total RNA was isolated by the guanidinium-cesium chloride method as described in N. S. Waleh, J. Gallo, T. D. Grant, B. J. Murphy, R. H. Kramer and R. M. Sutherland. (1994) “Selective downregulation of integrin receptors in spheroids of squamous cell carcinoma” Cancer Res., 54:838-843. Five to 10 μg of total RNA was electrophoresed in 1% agarose gels containing 6% formaldehyde. Following electrophoresis, gels were stained with ethidium bromide to visualize the positions of 28S and 18S RNA. The RNAs were then transferred to nylon membranes (Amersham Hybond N) by capillary blotting and fixed to the filter by exposure to UV light. The blots were probed with ^32P-labeled cDNA sequences of human TNF-α obtained from the American Type Culture Collection (ATCC). The TNF-α cDNA was a 1.1 kb PstI fragment of plasmid pE4 in E. coli MM294 (ATCC 39894). Hybridizations were carried out at 42° C. in 50% formamide, 5×SSC, 5×Denhardt's solution, 0.1% SDS, and 0.3 mg/mL salmon sperm DNA. Filters were washed by 1×SSC, 0.1% SDS, twice at room temperature for 15 min and once at 55° C. in 0.1×SSC, 0.1% SDS for 1 hr. Filters were exposed to X-ray film at −70° C. using an intensifying screen (Coronex Hi-Plus).
Hybridized bands were quantified by analyzing the images obtained by using a video densitometer (Applied Imaging Corporation, Santa Clara, Calif.). Film densities were calibrated using an optical-density wedge.

[3] = Table 1 experiment, dose 8.3 μg/CAM
[4] = Table 1 experiment, dose 25 μg/CAM
[5] = Table 1 experiment, dose 75 μg/CAM
[6] = Table 2 experiment, dose 8.3 μg/CAM
[7] = Table 2 experiment, dose 25 μg/CAM
[8] = Table 2 experiment, dose 75 μg/CAM

## COC(=O)c1cc(I)c(Oc2ccc(OC)cc2)c(I)c1 [BTO-956, methyl-3,5-diiodo-4-(4′-methoxyphenoxy)benzoate]
[1]
  inhibition of hFGF-B-induced angiogenesis: 30%
[1]; [3]
  % Inhibition: 0%
  ^14C-Proline Incorporated into Collagenous Protein (mean ± S.E.): 6884 ± 1395 cpm/mg-protien
[1]; [4]
  % Inhibition: 19%
  ^14C-Proline Incorporated into Collagenous Protein (mean ± S.E.): 5098 ± 785 cpm/mg-protien
[1]; [5]
  % Inhibition: 31%
  ^14C-Proline Incorporated into Collagenous Protein (mean ± S.E.): 4374 ± 651 cpm/mg-protien
[1]; [6]
  % Inhibition: 10%
  ^14C-Proline Incorporated into Collagenous Protein (mean ± S.E.): 10138 ± 1625 cpm/mg-protien
[1]; [7]
  % Inhibition: 18%
  ^14C-Proline Incorporated into Collagenous Protein (mean ± S.E.): 9100 ± 1664 cpm/mg-protien
[1]; [8]
  % Inhibition: 32%
  ^14C-Proline Incorporated into Collagenous Protein (mean ± S.E.): 7534 ± 1099^a cpm/mg-protien
MCF-7 cell cultures
  IC50: 0.6 µM
[2]; 10 μM added to LPS (100 ng/mL) treated cultures, 3 h
  inhibition of TNF-α mRNA accumulation: 61%
[2]; 10 μM, without LPS, 3 h
  effect on TNF-α mRNA expression, compound only: no effect
[2]; cells treated with different concentrations
  total RNA integrity: intact
[2]; various concentrations with LPS for 3 h
  amounts of TNF-α mRNA, concentration-effect relationship: declined with the increasing concentrations
